Numbers after ± are expanded uncertainties.
Conditions: 298.15 K, 101.33 kPa, Liquid

- viscosity (Cone and plate viscometry): 16.9 ± 1.7 mPa·s
- electrical conductivity (Direct current cell with electrodes): 8.5e-05 ± 2e-06 S/m
- thermal conductivity (transient hot wire): 0.2445 ± 0.0098 W/m/K
Compound: OCCO [1,2-ethanediol]
